Laboratory results reported in paper PMC5054363 (Scientific Reports, 2016).
*1 amine or outer side, *2 acyl side, *3 side chain or, on linkers, in order; H or OH if unused. Where a SMILES comes first, the peptide text is derived from it. Bridges are numbered along the chain shown (N, C = ends). [ ]: non-standard residue; d: D form. The star is where a group is joined. X1 = CC[C@H](C)[C@@H](N[*:1])[C@@H](O)CC(=O)O[C@H](C(=O)[C@H](C)C(=O)[*:2])C(C)C; NMeY = CN[C@@H](Cc1ccc(O)cc1)C(=O)O; dNMeL = CN[C@H](CC(C)C)C(=O)O; Pyruvoyl = CC(=O)C(=O)*

Columns and labels:
[1] = tested on: K-562 chronic myelogenous leukemia cells; test: Cell growth inhibition (72 h), K-562; type: cell-based; details: K-562, 72 h
[2] = tested on: HeLa cells ectopically overexpressing eEF1A2-GFP; test: Antiproliferative activity in HeLa overexpressing eEF1A2-GFP; type: cell-based, human; details: HeLa overexpressing eEF1A2-GFP (Supplementary Figure 1)
Procedure: For transfection and selection of cell clones, HeLa and HeLa-APL-R cells were seeded in 24 well plates at 40% confluence and allowed to stand for 24 hours at 37 °C and 5% CO2. Before transfection, the culture medium was changed to Opti-MEM (Life Technologies, Carlsbad, CA, USA). Plasmids encoding eEF1A2-GFP were incubated with Lipofectamine (Life Technologies, Carlsbad, CA, USA) under the recommendations of the manufacturer and added to the cell medium. After 24 h incubation at 37 °C and 5% CO2, the culture medium was replaced by the standard DMEM supplemented with 2 mg/ml of G-418 for the selection of clones expressing the exogenous gene. Clones were further selected following the expression of the GFP-fused protein through fluorescence microscopy.
LEGENDS TO SUPPL EMENTARY FI GURES
HeLa and HeLa-APL -R cells.
autofluorescence AF (grey).
GFP at different concentrations identified in the phasor plot.
Supplementary Figure 3. FRET efficiency estimation from FRET “Dn” and FRET
of incubation with 10 nM plitidepsin- DMAC. Clusters of phasors corresponding to the […]

[3] = tested on: three tumor cell lines selected for resistance to plitidepsin
Procedure: In all cases eEF1A2 protein levels were analyzed by Western Blot as shown in the right hand side of each graph. ● wild type cells, ○ APL-R cells.
HeLa cervix adenocarcinoma (ATCC CCL-2), K-562 chronic myelogenous leukemia (ATCC CCL-243), NCI-H460 lung cancer (ATCC HTB-177) and HGC27 gastric cancer (ATCC CRL-2506) cells were obtained from ATCC (Manassas, VA, USA) and cultured following standard procedures. Viability assays were performed utilizing 3-(4,5-dimethylthiazol-2-yl)-2,5-diphenyltetrazolium bromide (MTT) according to methods described elsewhere.

[4] = biological target: eEF1A2 purified from rabbit muscle (Oryctolagus cuniculus, UniProt Q71V39); details: saturation binding, Swillens fit
Procedure: (A) Saturation binding curve. Protein and radioligand were incubated for 1 h at room temperature and samples were processed as described in the text. […] The experiment was performed as described in the text, and the experimental points were fitted to a single exponential decay equation by non-linear regression. […] Extracts were then digested with the indicated concentrations of subtilisin for 30 min at room temperature. Samples were resolved by SDS-PAGE and the degradation of eEF1A2 analyzed by Western blot; quantitation of the bands from the DARTS assay was performed with the ImageJ software.

[5] = tested on: eEF1A2 in HeLa protein extract; test: DARTS assay (subtilisin digestion of HeLa protein extract); type: binding, human; details: plitidepsin 1 h, subtilisin 30 min, room temperature, Western blot
Procedure: (A) Saturation binding curve. […] (B) Dissociation kinetics of [14C]-plitidepsin from eEF1A2.
Each sample was then digested with subtilisin for 30 min at room temperature.
Protein extracts from HeLa cells were obtained by treating them with lysis buffer (see above) and kept on ice for 15 min. Cell extracts were cleared by centrifugation at 14,000 × g for 15 min at 4 °C. […] Extracts were digested with the indicated concentrations of Subtilisin (EC 3.4.21.62) for 30 min at RT. […] Quantitation of the eEF1A2 bands was performed with the Image Lab v5.2.1 software (Bio-Rad, Hercules, CA, USA).

eEF1A2 = test: GDP/GTP exchange in eEF1A2; type: biochemical; details: with EF1B, data not shown
[6] = tested on: CHRM1 (M1 muscarinic acetylcholine receptor); test: PathHunter CHRM1 activation; type: cell-based; details: data not shown
Excerpt: For example, it is known that eEF1A is able to directly increase the activity of sphingosine kinase-1 (SK1), an effect that is related to oncogenesis. […] The hijacking of eEF1A with the consequent reduction of SK1 activity has already been described as a biological mechanism in dengue virus type-2 infected cells. Another example is the specific binding of eEF1A2 to the i3 loop of M4, but not M1, muscarinic acetylcholine receptor[40]. This direct interaction with M4 regulates its cell membrane density and activity. […] This is due to a specific interaction of eEF1A with aberrant polypeptides named defective ribosomal products (DRiPs) that are ligated to multi-ubiquitin chains following translation damage; eEF1A also plays a role in sensing DRiP accumulation when the proteasome is inhibited.

[7] = tested on: HeLa cervical cancer cells; set-up: method as in PMID 15365569; details: HeLa parental cells, 72 h, Fig. 1A; reported as previously described; cited from earlier work
[8] = tested on: HeLa-APL-R cervical cancer cells (plitidepsin-resistant); set-up: method as in PMID 15365569; details: 72 h, Fig. 1A, reported as previously described; cited from earlier work
[9] = tested on: signaling events in HeLa-APL-R cells; details: HeLa-APL-R versus parental HeLa; cited from earlier work
Excerpt: In contrast, HeLa cells ectop ...

multiple myeloma cells = details: cited from earlier work
Excerpt: For example, it is known that eEF1A is able to directly increase the activity of sphingosine kinase-1 (SK1), an effect that is related to oncogenesis. […] The hijacking of eEF1A with the consequent reduction of SK1 activity has already been describe ...

[10] = two different COMPARE analyses, no reference given; cited from earlier work
Excerpt: (§1) Plitidepsin (Aplidin) is a cyclic depsipeptide originally isolated from the marine tunicate Aplidium albicans. […] Plitidpesin has recently completed a pivotal phase III clinical trial for multiple myeloma (clinicaltrials.gov identifier: NCT01102426) that has shown a statistically significant 35% reduction in the risk of progression or death over the comparator (p = 0.0054). This study has met its primary endpoint. In tumor cells, the compound induces a potent oxidative stres ...

[11] = tested on: JNK and p38 MAPK, oxidative stress in tumor cells; details: cited from earlier work
Excerpt: as §1

[12] = tested on: multiple myeloma patients; details: phase III, p = 0.0054, ref clinicaltrials.gov NCT01102426; cited from earlier work
Excerpt: as §1

eEF1A2 purified from rabbit muscle, sequence (Q71V39 whole entry): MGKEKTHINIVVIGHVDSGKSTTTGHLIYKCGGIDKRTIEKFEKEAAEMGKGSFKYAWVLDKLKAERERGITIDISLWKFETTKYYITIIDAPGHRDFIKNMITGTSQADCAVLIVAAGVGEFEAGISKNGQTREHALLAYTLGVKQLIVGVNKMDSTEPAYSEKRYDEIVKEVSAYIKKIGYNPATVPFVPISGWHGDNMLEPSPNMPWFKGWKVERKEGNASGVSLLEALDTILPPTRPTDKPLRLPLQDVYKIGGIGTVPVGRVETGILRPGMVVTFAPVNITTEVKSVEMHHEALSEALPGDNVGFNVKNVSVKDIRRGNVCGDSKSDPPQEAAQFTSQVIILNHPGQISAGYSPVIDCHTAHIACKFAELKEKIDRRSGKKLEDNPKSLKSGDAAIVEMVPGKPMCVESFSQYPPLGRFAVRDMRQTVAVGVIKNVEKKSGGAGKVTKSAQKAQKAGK

CC[C@H](C)[C@H]1NC(=O)[C@@H](NC(=O)[C@@H](CC(C)C)N(C)C(=O)[C@@H]2CCCN2C(=O)C(C)=O)[C@@H](C)OC(=O)[C@H](Cc2ccc(OC)cc2)N(C)C(=O)[C@@H]2CCCN2C(=O)[C@H](CC(C)C)NC(=O)[C@@H](C)C(=O)[C@H](C(C)C)OC(=O)C[C@@H]1O [plitidepsin, Plitidepsin] (Pyruvoyl-P[dNMeL]T[X1]LP[NMeY](Me); ester 3-C (inferred))
IC50 [1]: 9.35 nM
additional sensitization to the drug [2]: did not show any additional sensitization
fold resistance to plitidepsin versus parental cells [3]: at least 100 fold
Kd ([4]; [14C]-plitidepsin 0.1 to 4 μM, 100 nM rabbit eEF1A2, 1 μM Gpp(NH)p, pH 7.5, 5% DMSO, 1 h, room temperature, filtration, triplicate): 79 ± 30 nM
Bmax ([4]; [14C]-plitidepsin, 1 h, room temperature): 0.7 mol per mol of protein
alpha (ratio between non-specifically bound ligand and free ligand) ([4]; [14C]-plitidepsin): 0.014 ± 0.0005
protection of eEF1A2 from digestion by subtilisin [5]: protected eEF1A2 from digestion by subtilisin in a concentration-dependent manner
effect on GDP/GTP exchange in eEF1A2 (eEF1A2): very modest
effect on CHRM1 [6]: did not affect CHRM1
IC50 [7]: 1 nM
IC50 [8]: > 100 nM
signaling events triggered by plitidepsin [9]: completely lost
combination effect with bortezomib (multiple myeloma cells; with bortezomib): synergistic
combination effect with lenalidomide (multiple myeloma cells; with lenalidomide): synergistic
combination effect with thalidomide (multiple myeloma cells; with thalidomide): synergistic
similarity with other antitumor agents [10]: no similarity with any other antitumor agent
activation of JNK and p38 [11]: rapid and sustained activation
oxidative stress [11]: potent oxidative stress
reduction in the risk of progression or death over the comparator [12]: 35%
